Here are results for 25 molecules from ChEMBL document CHEMBL1201862, “PubChem BioAssay data set” (2004).

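All cell lines were grown in 96-well plates and treated with compound for 48 hours. Here, GI50 denotes the concentration required for 50% inhibition of growth.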 Activity calls are given as the source filed them. Cut-off read from the data, not from the text of the source: active = GI50 up to about 1.1 µM and inactive = higher.

Test systems include DLD-1; DMS-273; DMS-114; M19-MEL; RXF 631; KM-20L2; HOP-18; XF498; SNB-78.
Test in all cases: inhibition of tumour cell growth, NCI panel, 48 h

`C=C(C)C1CC=C(C(=O)O)CC1` (configuration not stated): the GI50 in the assay with DLD-1 is 1490 µM (inactive); with DMS-273, 1340 µM (inactive); in the assay with DMS-114, 1360 µM (inactive); in the assay on M19-MEL, 1160 µM (inactive); with RXF 631 it was 839 µM (inactive); in the assay with KM-20L2, 1410 µM (inactive).

Consider `O=C(Nc1ccccc1)n1cc(-c2ccccn2)c(N2CCOCC2)n1`, for which the GI50 with DLD-1 is 6.61 µM (inactive); in the assay with DMS-273 it was 3.44 µM (inactive); with DMS-114, 5.36 µM (inactive); in the assay with HOP-18, > 100 µM (inactive); in the assay on M19-MEL, 6.61 µM (inactive); in the assay on KM-20L2, 2.68 µM (inactive). Also, the GI50 is 9.23 µM (inactive) in the assay on XF498 and 24.9 µM (inactive) in the assay on SNB-78.

Take `N#CC(c1ccc(Cl)cc1)c1cccc(Cl)n1` (configuration not stated): the GI50 in the assay with DLD-1 was 83 µM (inactive); in the assay on M19-MEL, 60.1 µM (inactive); in the assay with KM-20L2 it was 80.4 µM (inactive); with XF498 it was 24.8 µM (inactive); in the assay with SNB-78 it was 67.3 µM (inactive).

Turning to `CC1=CC(=O)NP(=O)(Oc2ccc(C)cc2)N1` (configuration not stated), the GI50 with DLD-1, in the assay on DMS-273, in the assay with DMS-114, in the assay with HOP-18, in the assay with M19-MEL and in the assay with RXF 631 was > 100 µM (inactive) in each case. In addition, the GI50 in the assay with KM-20L2, with XF498 and with SNB-78 was > 100 µM (inactive) each time.

As to `CCCOCN1COCN/C1=N\C#N`, the GI50 with DLD-1 was 70.1 µM (inactive); with DMS-273, 18 µM (inactive); in the assay on DMS-114, 22 µM (inactive); in the assay with HOP-18 it was 32.8 µM (inactive); in the assay on M19-MEL, 30.9 µM (inactive); in the assay on KM-20L2, 36.2 µM (inactive). Further, the GI50 with XF498 and in the assay with SNB-78 was > 100 µM (inactive) throughout.

As for `COc1ccccc1/N=N/c1c(-c2ccccc2)nn(C(=O)CC(=O)Nc2cccc(C)c2)c1-c1ccccc1`, the GI50 with DLD-1 is 25.8 µM (inactive); in the assay on DMS-273, 34.5 µM (inactive); in the assay with DMS-114, 14.7 µM (inactive); in the assay with HOP-18, > 100 µM (inactive); in the assay on M19-MEL, 35.8 µM (inactive); in the assay with RXF 631 it was 7.4 µM (inactive). Besides, the GI50 was 27.3 µM (inactive) in the assay with KM-20L2, 16.4 µM (inactive) in the assay with XF498 and 61.8 µM (inactive) in the assay with SNB-78.

In the case of `O=C(/C=C/c1ccc(OCC(=O)N2CCN(c3ccccc3)CC2)cc1)c1ccc(Cl)cc1`, the GI50 with DLD-1 was > 100 µM (inactive); in the assay on DMS-273, 55 µM (inactive); in the assay with DMS-114, > 65.3 µM (inactive); in the assay on HOP-18 it was > 100 µM (inactive); with M19-MEL, > 100 µM (inactive); in the assay with RXF 631 it was 34.8 µM (inactive). Besides, the GI50 in the assay with KM-20L2 is > 100 µM (inactive); in the assay on SNB-78, 18.6 µM (inactive).

With `O=C1C2=C(CCCCC2)C2CCCCC12O` (configuration not stated), the GI50 in the assay with DLD-1, in the assay on DMS-273, in the assay with DMS-114, with M19-MEL, with KM-20L2 and in the assay on XF498 was > 100 µM (inactive) in each case. For the same molecule, the GI50 with SNB-78 is > 100 µM (inactive).

Consider `Cc1ccc(Sc2ccc(C)cc2[N+](=O)[O-])c([N+](=O)[O-])c1`, for which the GI50 with DMS-273, in the assay with DMS-114, in the assay on HOP-18, in the assay with M19-MEL, in the assay with KM-20L2 and in the assay with XF498 was > 100 µM (inactive) each time. Besides, in the assay on SNB-78, the GI50 is > 100 µM (inactive).

On to `COc1cc(NS(C)(=O)=O)ccc1Nc1c2ccccc2nc2c1[nH]c1ccc(NC3OC(CO)C(O)C(O)C3O)cc12` (configuration not stated), for which the GI50 was 0.293 µM (active) in the assay with DLD-1; < 0.01 µM (active) in the assay on DMS-273; < 0.01 µM (active) in the assay with DMS-114; 0.048 µM (active) with HOP-18; 0.165 µM (active) in the assay with M19-MEL; 0.163 µM (active) in the assay on KM-20L2. The GI50 in the assay on SNB-78 was 1.27 µM (inactive).

For `CN1C/C(=C\c2ccccc2)C2=NN(C(N)=S)[C@H](c3ccccc3)[C@@H]2C1`, the GI50 is 53.7 µM (inactive) with DLD-1; 47.4 µM (inactive) in the assay with DMS-273; 55.2 µM (inactive) in the assay on M19-MEL; 55.6 µM (inactive) with KM-20L2; > 100 µM (inactive) in the assay with XF498; 28.1 µM (inactive) with SNB-78.

In the case of `O=C(O)CNc1c2ccccc2nc2ccccc12`, the GI50 is > 100 µM (inactive) in the assay with DLD-1; > 100 µM (inactive) in the assay with DMS-273; 60.4 µM (inactive) in the assay with DMS-114; > 100 µM (inactive) in the assay on RXF 631; > 100 µM (inactive) in the assay with KM-20L2; > 100 µM (inactive) in the assay on XF498.

Regarding `NC(=O)C(=O)N/N=C1\C(=O)N(c2ccc(Cl)cc2Cl)C(=O)C1C(=O)Nc1ccc(Cl)cc1Cl` (configuration not stated), the GI50 was > 100 µM (inactive) with DLD-1; > 100 µM (inactive) with DMS-273; > 100 µM (inactive) with DMS-114; 76.9 µM (inactive) with HOP-18; > 100 µM (inactive) in the assay with M19-MEL; > 100 µM (inactive) with KM-20L2. For the same molecule, the GI50 with XF498 and in the assay with SNB-78 was > 100 µM (inactive) in each case.

As for `c1ccc(COCC2OC3c4ccccc4COC3C2OCc2ccccc2)cc1` (configuration not stated), the GI50 in the assay with DLD-1 was > 100 µM (inactive); in the assay with DMS-273 it was 83.6 µM (inactive); in the assay on DMS-114, 49.5 µM (inactive); with HOP-18 it was > 100 µM (inactive); with M19-MEL, > 100 µM (inactive); in the assay on RXF 631, > 100 µM (inactive). For the same molecule, the GI50 in the assay on KM-20L2 and with SNB-78 was > 100 µM (inactive) each time.

As to `Cc1cc(=O)n(-c2ccccc2)c(=O)o1`, the GI50 in the assay with DLD-1, in the assay on DMS-273, in the assay with DMS-114, in the assay with HOP-18, in the assay on M19-MEL and in the assay with KM-20L2 was > 100 µM (inactive) throughout. Besides, in the assay on SNB-78, the GI50 was > 100 µM (inactive).

Turning to `CC1OC(n2cc(C(F)(F)F)c(=O)[nH]c2=O)C=CC1=O` (configuration not stated), the GI50 in the assay with DLD-1 was 18.8 µM (inactive); in the assay with M19-MEL, 20.3 µM (inactive); with RXF 631 it was 12.7 µM (inactive); with KM-20L2 it was 22.3 µM (inactive); with XF498, 16.6 µM (inactive); in the assay with SNB-78, 15.8 µM (inactive).

Turning to `COC(=O)C1=C(C(=O)OC)C2C(C)=CC(C)=CN2C(C#N)=C(SC)S1` (configuration not stated), the GI50 with DLD-1 was 22.6 µM (inactive); in the assay on DMS-273, 31.8 µM (inactive); in the assay with DMS-114, 22.6 µM (inactive); with M19-MEL it was 17.7 µM (inactive); in the assay on KM-20L2, 32.7 µM (inactive); with SNB-78, 41.3 µM (inactive).

With `O=C(COc1ccc(Cl)cc1)N1CCN(C(=O)COc2ccc(Cl)cc2)c2ccccc21`, the GI50 in the assay on DLD-1 is 64 µM (inactive); in the assay on DMS-273, 39.2 µM (inactive); in the assay with DMS-114, 29.5 µM (inactive); in the assay with HOP-18 it was 71.3 µM (inactive); in the assay on M19-MEL it was 38.1 µM (inactive); in the assay on KM-20L2, > 100 µM (inactive). For the same molecule, the results for the GI50 with XF498 and in the assay on SNB-78 were 24.5 µM (inactive) and 45.4 µM (inactive), respectively.

Take `CC12CP(=O)(c3ccccc3)CC1C2(Cl)Cl` (configuration not stated): the GI50 with DLD-1, with DMS-273, in the assay with DMS-114, with HOP-18, with M19-MEL and with KM-20L2 was > 100 µM (inactive) each time. Further, the GI50 in the assay on XF498 and in the assay on SNB-78 was > 100 µM (inactive) throughout.

On to `N#CC1(C=O)c2ccccc2C=CN1C(=O)c1ccccc1` (configuration not stated), for which the GI50 is 49.2 µM (inactive) in the assay with DMS-273; 19.8 µM (inactive) in the assay with DMS-114; 41.4 µM (inactive) in the assay on HOP-18; 33.7 µM (inactive) with M19-MEL; 56.5 µM (inactive) in the assay on RXF 631; 43.6 µM (inactive) in the assay with KM-20L2. Besides, the figures for the GI50 in the assay on XF498 and in the assay on SNB-78 were 22 µM (inactive) and 78.7 µM (inactive), respectively.

For the molecule `CC(=O)Nc1c(Nc2ccccc2)[nH]c(C)nc1=S`, the GI50 with DLD-1, with DMS-273, in the assay with DMS-114, in the assay on KM-20L2, with XF498 and with SNB-78 was > 100 µM (inactive) each time.

For `CCOC(=O)/C(C#N)=C1/C(O)=C(C(=O)OC)C(C(=O)OC)=C1C(=O)OC.c1ccncc1`, the GI50 in the assay with DLD-1, in the assay with DMS-273, in the assay on M19-MEL and in the assay on KM-20L2 was > 100 µM (inactive) each time.

For `CCOC12OC3=C(CC1CC1=C(CCC1=O)O2)C(=O)CC3` (configuration not stated), the GI50 with DLD-1, in the assay with DMS-273, with DMS-114, in the assay with HOP-18, with M19-MEL and in the assay with RXF 631 was > 100 µM (inactive) in each case. Also, the GI50 with KM-20L2 and in the assay on SNB-78 was > 100 µM (inactive) each time.

Turning to `Cc1c(Cl)ccc2[s+]snc12`, the GI50 is 25.4 µM (inactive) with DLD-1; 38.2 µM (inactive) in the assay on DMS-273; 29 µM (inactive) in the assay with HOP-18; 33 µM (inactive) in the assay on M19-MEL; 33.4 µM (inactive) in the assay with RXF 631; > 100 µM (inactive) in the assay on KM-20L2. The figures for the GI50 in the assay on XF498 and in the assay on SNB-78 were 25.3 µM (inactive) and 31 µM (inactive), respectively.

Turning to `Cc1ccc(-c2cc(O)c3cc4c(cc3n2)OCO4)cc1`, the GI50 in the assay with DLD-1 is 0.859 µM (active); with DMS-273 it was 1.35 µM (inactive); in the assay on DMS-114 it was 2.48 µM (inactive); with HOP-18, 3.07 µM (inactive); in the assay on M19-MEL it was 0.805 µM (active); in the assay on KM-20L2 it was 1.67 µM (inactive).
